Data published in ChEMBL document CHEMBL4602676, “Discovery and Development of 3-(6-Chloropyridine-3-yloxymethyl)-2-azabicyclo[3.1.0]hexane Hydrochloride (SUVN-911): A Novel, Potent, Selective, and Orally Active Neuronal Nicotinic Acetylcholine α4β2 Receptor Antagonist for the Treatment of Depression” (J Med Chem, 2020).

Columns and labels:
[1] = target: Neuronal acetylcholine receptor; alpha4/beta2 (Homo sapiens, UniProt P17787+P43681); assay: Displacement of [3H]cytisine from human alpha4beta2 nAChR expressed in CHOK1 cell membrane by microbeta scintillation counting method; assay type: cell membranes, CHO-K1
[2] = target: Neuronal acetylcholine receptor; alpha3/beta4 (Homo sapiens, UniProt P30926+P32297); assay: Displacement of [3H]epibatidine from human alpha3beta4 nAChR expressed in IMR32 cell membrane by microbeta scintillation counting method; assay type: cell membranes, IMR-32
[3] = Cmax in Wistar rat at 10 ml/kg, po or 2 ml/kg, iv measured upto 24 hrs by LC-MS/MS analysis; assay type: ADME, organism-based; details: in vivo
[4] = Oral bioavailability in Wistar rat at 10 ml/kg measured upto 24 hrs by LC-MS/MS analysis; assay type: ADME, organism-based; details: in vivo
Cytochrome P450 2D6 = Cytochrome P450 2D6 (Homo sapiens, UniProt P10635); assay: Inhibition of CYP2D6 in human liver microsomes using dextromethorphan as substrate incubated for 12 min in presence of NADPH by LC-MS/MS analysis; assay type: ADME
Cytochrome P450 3A4 = Cytochrome P450 3A4 (Homo sapiens, UniProt P08684); assay: Inhibition of CYP3A4 in human liver microsomes using midazolam as substrate incubated for 2 min in presence of NADPH by LC-MS/MS analysis; assay type: ADME
[5] = AUC in Wistar rat at 10 ml/kg, po or 2 ml/kg, iv measured upto 24 hrs by LC-MS/MS analysis; assay type: ADME, organism-based; details: in vivo
[6] = Metabolic stability in human liver microsomes assessed as compound metabolism incubated for 30 mins in presence of NADPH by LC-MS/MS analysis; assay type: ADME, Microsome; details: read-out: Drug metabolism
[7] = Metabolic stability in rat liver microsomes assessed as compound metabolism incubated for 30 mins in presence of NADPH by LC-MS/MS analysis; assay type: ADME, Microsome; details: read-out: Drug metabolism
[8] = Ratio of drug level in brain to plasma in Wistar rat at 10 ml/kg, po or 2 ml/kg, iv measured upto 24 hrs by LC-MS/MS analysis; assay type: ADME, organism-based; details: brain and plasma, read-out: BPR
[9] = Half life in Wistar rat at 10 ml/kg, po or 2 ml/kg, iv measured upto 24 hrs by LC-MS/MS analysis; assay type: ADME, organism-based; details: in vivo
Rattus norvegicus [10] = assay: Antidepressant activity in Wistar rat assessed as immobility time at 10.0 mg/kg, po measured for 5 mins by forced swim test (reference value: 241.9 to 281.6 sec); assay type: functional
Rattus norvegicus [11] = assay: Antidepressant activity in Wistar rat assessed as immobility time at 3.0 mg/kg, po measured for 5 mins by forced swim test (reference value: 241.9 to 281.6 sec); assay type: functional

Chain of Cytochrome P450 2D6 (P10635 whole entry): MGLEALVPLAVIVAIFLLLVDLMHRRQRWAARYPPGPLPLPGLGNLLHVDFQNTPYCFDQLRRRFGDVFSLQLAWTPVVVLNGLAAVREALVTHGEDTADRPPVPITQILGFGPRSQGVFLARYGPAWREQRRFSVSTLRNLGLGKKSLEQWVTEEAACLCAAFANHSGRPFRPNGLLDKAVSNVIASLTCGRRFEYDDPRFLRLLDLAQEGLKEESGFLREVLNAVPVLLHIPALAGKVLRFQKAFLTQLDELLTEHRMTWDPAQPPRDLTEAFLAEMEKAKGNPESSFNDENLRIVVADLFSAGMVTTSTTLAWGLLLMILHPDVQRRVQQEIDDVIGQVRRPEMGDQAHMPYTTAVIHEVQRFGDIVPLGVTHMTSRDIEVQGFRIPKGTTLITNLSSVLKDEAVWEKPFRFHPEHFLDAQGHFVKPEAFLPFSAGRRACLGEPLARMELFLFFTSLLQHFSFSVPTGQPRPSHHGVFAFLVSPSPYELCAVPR
Chain of Neuronal acetylcholine receptor; alpha3/beta4 (P30926 whole entry): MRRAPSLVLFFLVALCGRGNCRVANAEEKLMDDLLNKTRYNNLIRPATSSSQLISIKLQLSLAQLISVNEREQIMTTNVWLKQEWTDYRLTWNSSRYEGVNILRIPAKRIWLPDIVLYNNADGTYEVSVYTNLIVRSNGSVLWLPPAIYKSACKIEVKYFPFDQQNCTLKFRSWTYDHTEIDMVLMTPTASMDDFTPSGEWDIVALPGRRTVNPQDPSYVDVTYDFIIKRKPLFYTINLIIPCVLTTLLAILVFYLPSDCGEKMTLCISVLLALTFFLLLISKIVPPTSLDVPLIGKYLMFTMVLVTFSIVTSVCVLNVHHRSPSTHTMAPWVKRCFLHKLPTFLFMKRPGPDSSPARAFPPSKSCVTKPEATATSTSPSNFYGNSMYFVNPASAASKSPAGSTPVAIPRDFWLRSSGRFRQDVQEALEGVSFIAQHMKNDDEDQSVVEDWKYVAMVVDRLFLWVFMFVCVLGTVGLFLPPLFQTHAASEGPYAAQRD
Chain of Neuronal acetylcholine receptor; alpha3/beta4 (P32297 whole entry): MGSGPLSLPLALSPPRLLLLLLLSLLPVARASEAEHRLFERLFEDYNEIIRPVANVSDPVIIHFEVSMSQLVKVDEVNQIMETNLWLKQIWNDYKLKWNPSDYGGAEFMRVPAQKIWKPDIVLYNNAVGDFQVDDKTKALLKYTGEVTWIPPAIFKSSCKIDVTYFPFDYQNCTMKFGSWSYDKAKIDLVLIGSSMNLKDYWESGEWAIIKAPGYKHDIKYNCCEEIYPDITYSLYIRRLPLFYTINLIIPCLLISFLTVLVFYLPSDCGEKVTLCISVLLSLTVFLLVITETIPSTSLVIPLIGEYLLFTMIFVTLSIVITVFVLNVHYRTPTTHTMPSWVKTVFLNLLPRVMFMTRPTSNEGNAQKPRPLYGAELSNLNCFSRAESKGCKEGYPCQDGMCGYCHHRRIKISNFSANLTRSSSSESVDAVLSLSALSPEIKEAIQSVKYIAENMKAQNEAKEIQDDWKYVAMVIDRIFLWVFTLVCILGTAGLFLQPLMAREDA
Chain of Neuronal acetylcholine receptor; alpha4/beta2 (P17787 whole entry): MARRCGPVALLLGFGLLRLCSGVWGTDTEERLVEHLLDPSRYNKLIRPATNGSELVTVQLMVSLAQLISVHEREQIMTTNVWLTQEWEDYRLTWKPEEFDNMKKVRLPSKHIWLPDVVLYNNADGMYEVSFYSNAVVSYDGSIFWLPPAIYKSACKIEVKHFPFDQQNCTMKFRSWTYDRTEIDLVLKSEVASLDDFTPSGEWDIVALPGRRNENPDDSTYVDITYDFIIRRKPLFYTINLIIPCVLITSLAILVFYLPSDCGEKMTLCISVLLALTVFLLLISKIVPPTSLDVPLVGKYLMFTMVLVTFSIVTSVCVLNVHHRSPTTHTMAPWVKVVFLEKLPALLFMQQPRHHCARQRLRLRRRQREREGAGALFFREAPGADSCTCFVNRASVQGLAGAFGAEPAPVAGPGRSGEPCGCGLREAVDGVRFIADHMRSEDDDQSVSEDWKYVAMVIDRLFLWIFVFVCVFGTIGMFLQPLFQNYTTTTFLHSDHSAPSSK
Chain of Neuronal acetylcholine receptor; alpha4/beta2 (P43681 whole entry): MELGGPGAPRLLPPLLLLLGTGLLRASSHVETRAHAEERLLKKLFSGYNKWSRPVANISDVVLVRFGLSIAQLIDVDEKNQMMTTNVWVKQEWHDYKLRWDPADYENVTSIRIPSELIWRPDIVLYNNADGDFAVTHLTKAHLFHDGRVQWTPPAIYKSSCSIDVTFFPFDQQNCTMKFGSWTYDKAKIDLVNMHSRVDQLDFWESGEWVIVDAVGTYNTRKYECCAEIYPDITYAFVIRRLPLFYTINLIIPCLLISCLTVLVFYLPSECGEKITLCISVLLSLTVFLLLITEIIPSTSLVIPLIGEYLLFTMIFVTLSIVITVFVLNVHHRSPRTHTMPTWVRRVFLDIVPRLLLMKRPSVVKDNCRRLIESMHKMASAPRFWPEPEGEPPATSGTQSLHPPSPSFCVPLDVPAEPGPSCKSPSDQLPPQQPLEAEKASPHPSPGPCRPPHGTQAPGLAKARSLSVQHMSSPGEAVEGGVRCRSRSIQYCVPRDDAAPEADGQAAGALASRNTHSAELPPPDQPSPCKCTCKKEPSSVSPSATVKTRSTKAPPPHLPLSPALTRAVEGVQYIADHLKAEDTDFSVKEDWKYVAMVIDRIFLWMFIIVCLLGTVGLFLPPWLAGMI
Chain of Cytochrome P450 3A4 (P08684 whole entry): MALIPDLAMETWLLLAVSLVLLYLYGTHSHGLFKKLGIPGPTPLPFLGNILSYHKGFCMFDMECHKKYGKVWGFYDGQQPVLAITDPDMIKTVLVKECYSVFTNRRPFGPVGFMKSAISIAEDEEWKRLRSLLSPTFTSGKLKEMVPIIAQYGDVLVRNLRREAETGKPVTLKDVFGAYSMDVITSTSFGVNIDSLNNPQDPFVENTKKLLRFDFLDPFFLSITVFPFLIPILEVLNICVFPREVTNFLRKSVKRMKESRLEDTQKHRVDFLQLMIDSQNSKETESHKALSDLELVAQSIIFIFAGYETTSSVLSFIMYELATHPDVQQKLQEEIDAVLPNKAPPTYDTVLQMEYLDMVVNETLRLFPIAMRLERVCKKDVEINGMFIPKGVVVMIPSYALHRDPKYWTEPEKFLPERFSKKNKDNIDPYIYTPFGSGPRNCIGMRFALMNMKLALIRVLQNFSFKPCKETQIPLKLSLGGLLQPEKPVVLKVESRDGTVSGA

## c1nnc(-c2cncc(OC[C@@H]3C[C@H]4C[C@H]4N3)c2)o1
[1]
  Ki: 131 nM

## Cl.Clc1ccc(OC[C@@H]2C[C@@H]3C[C@@H]3N2)cn1
[2]
  Ki: 1020 nM
[3]
  Cmax: 638 ng/mL
[1]
  Ki: 6.4 nM
[4]
  bioavailability: 66%
Cytochrome P450 2D6
  IC50: > 45000 nM
Cytochrome P450 3A4
  IC50: > 45000 nM
[5]
  AUC at 24 h: 1620 ng·h/mL
[6]
  metabolised at 0.5 h: 13.6%
[7]
  metabolised at 0.5 h: 36%
[8]
  Kp at 24 h: 2.14
[9]
  half-life: 2.73 h

## Clc1ccc(OC[C@]23C[C@H]2CCN3)cn1
[1]
  Ki: 341 nM

## CN1[C@H](COc2ccc(Cl)nc2)C[C@H]2C[C@H]21
[1]
  Ki: 3.4 nM

## Cl.Clc1ccc(OC[C@H]2C[C@@H]3C[C@@H]3N2)cn1
[2]
  Ki: 6010 nM
Rattus norvegicus [10]
  Time: 279 s
[3]
  Cmax: 1190 ng/mL
[1]
  Ki: 39 nM
[4]
  bioavailability: 35%
Cytochrome P450 2D6
  IC50: 17100 nM
Cytochrome P450 3A4
  IC50: > 45000 nM
Rattus norvegicus [11]
  Time: 256.8 s
[5]
  AUC at 24 h: 1770 ng·h/mL
[6]
  metabolised at 0.5 h: 42.2%
[7]
  metabolised at 0.5 h: 26.2%
[8]
  Kp at 24 h: 3.83
[9]
  half-life: 1.6 h

## c1ccc(OC[C@@H]2C[C@H]3C[C@H]3N2)nc1
[1]
  Ki: > 10000 nM

## Cl.c1cncc(OC[C@@H]2C[C@H]3C[C@H]3N2)c1
[2]
  Ki: > 10000 nM
Rattus norvegicus [10]
  Time: 210.4 s
[3]
  Cmax: 7610 ng/mL
[1]
  Ki: 7.9 nM
[4]
  bioavailability: 92%
Cytochrome P450 2D6
  IC50: 26200 nM
Cytochrome P450 3A4
  IC50: > 45000 nM
Rattus norvegicus [11]
  Time: 231 s
[5]
  AUC at 24 h: 10900 ng·h/mL
[6]
  metabolised at 0.5 h: 12.1%
[7]
  metabolised at 0.5 h: 17.9%
[8]
  Kp at 24 h: 3.8
[9]
  half-life: 4.19 h

## Cc1ncccc1OC[C@@H]1C[C@H]2C[C@H]2N1C
[1]
  Ki: 231 nM

## C[C@@]12C[C@@H]1CC(COc1ccc(Cl)nc1)N2 (some centres not stated)
[1]
  Ki: 6880 nM

## Clc1ncccc1OC[C@@H]1C[C@@H]2C[C@@H]2N1
[1]
  Ki: 1 nM

## Clc1ccc(OCC[C@@H]2C[C@H]3C[C@H]3N2)cn1
[1]
  Ki: 327 nM

## Brc1cncc(OC[C@@H]2C[C@H]3C[C@H]3N2)c1
[1]
  Ki: 6.4 nM

## Cl.c1cncc(OC[C@@H]2C[C@@H]3C[C@@H]3N2)c1
[2]
  Ki: 558 nM
[3]
  Cmax: 1500 ng/mL
[1]
  Ki: 1340 nM
[4]
  bioavailability: 87%
Cytochrome P450 2D6
  IC50: 30200 nM
Cytochrome P450 3A4
  IC50: 31900 nM
[5]
  AUC at 24 h: 2710 ng·h/mL
[6]
  metabolised at 0.5 h: 2.6%
[7]
  metabolised at 0.5 h: 3.9%
[8]
  Kp at 24 h: 3.07
[9]
  half-life: 1.08 h

## Clc1cncc(OC[C@@H]2C[C@@H]3C[C@@H]3N2)c1
[1]
  Ki: 327 nM

## COc1ccc(OC[C@@H]2C[C@H]3C[C@H]3N2)cn1
[1]
  Ki: > 10000 nM

## Clc1nccnc1OC[C@@H]1C[C@H]2C[C@H]2N1
[1]
  Ki: 5110 nM

## Brc1ccc(OC[C@@H]2C[C@H]3C[C@H]3N2)cn1
[1]
  Ki: 46.5 nM

## C[C@@]12C[C@@H]1CC(COc1cncc(Cl)c1)N2 (some centres not stated)
[1]
  Ki: 577 nM

## CN1[C@H](COc2cncc(Br)c2)C[C@H]2C[C@H]21
[1]
  Ki: 4.2 nM

## Clc1cncc(OC[C@H]2NC[C@@H]3C[C@@H]32)c1
[2]
  Ki: 8.2 nM
[1]
  Ki: 0.2 nM
Cytochrome P450 2D6
  IC50: > 45000 nM
Cytochrome P450 3A4
  IC50: > 45000 nM
[6]
  metabolised at 0.5 h: 6.04%
[7]
  metabolised at 0.5 h: 12.1%

## c1cncc(OC[C@]23C[C@H]2CCN3)c1
[1]
  Ki: 242 nM

## C=Cc1nnc(-c2cncc(OC[C@@H]3C[C@H]4C[C@H]4N3)c2)o1
[1]
  Ki: 2660 nM

## Clc1ccc(OC[C@H]2NC[C@@H]3C[C@@H]32)cn1
[1]
  Ki: 0.2 nM

## CN1[C@H](COc2cccnc2Cl)C[C@H]2C[C@H]21
[1]
  Ki: 28.1 nM

## Clc1ccc(OC[C@H]2C[C@H]3C[C@H]3N2)cn1
[2]
  Ki: 525 nM
[1]
  Ki: 329 nM
Cytochrome P450 2D6
  IC50: 32100 nM
Cytochrome P450 3A4
  IC50: > 45000 nM
[6]
  metabolised at 0.5 h: 18.3%
[7]
  metabolised at 0.5 h: 69.6%

## c1cncc(N2CCC3(CCCN3)C2)c1 (configuration not stated) [TC-2216]
[2]
  Ki: > 10000 nM
Rattus norvegicus [10]
  Time: 183.9 s
[1]
  Ki: 18.6 nM
Rattus norvegicus [11]
  Time: 249.1 s

## Clc1cncc(OCC[C@@H]2C[C@H]3C[C@H]3N2)c1
[1]
  Ki: 395 nM

## CN1[C@H](COc2cccnc2F)C[C@H]2C[C@H]21
[1]
  Ki: 31.9 nM

## c1ccc2ncc(OC[C@@H]3C[C@H]4C[C@H]4N3)cc2c1
[1]
  Ki: 600 nM

## c1cncc(OC[C@H]2NC[C@@H]3C[C@@H]32)c1
[2]
  Ki: 26.4 nM
[1]
  Ki: 0.14 nM
Cytochrome P450 2D6
  IC50: > 45000 nM
Cytochrome P450 3A4
  IC50: 21100 nM
[6]
  metabolised at 0.5 h: 6.7%
[7]
  metabolised at 0.5 h: 6.2%
